Earlier results in patent publication US20240342302A1, “DEGRADER-ANTIBODY CONJUGATES AND METHODS OF USING SAME” (Angiex, Inc., priority 2021, published 2024).

Experiments:
[1] = patients treated with CA4P

| Compound | toxicity in the clinic | cardiovascular adverse events [1] |
| --- | --- | --- |
| CN(C)CC#Cc1ccc(OCCCc2sc(N3CCc4cccc(C(=O)Nc5nc6ccccc6s5)c4C3)nc2C(=O)O)c(F)c1 [A115463] | on-target and dose-limiting thrombocytopenia |  |
| CC1(C)CCC(c2ccc(Cl)cc2)=C(CN2CCN(c3ccc(C(=O)NS(=O)(=O)c4ccc(N[C@H](CCN5CCOCC5)CSc5ccccc5)c(S(=O)(=O)C(F)(F)F)c4)cc3)CC2)C1 [ABT 263] | on-target and dose-limiting thrombocytopenia |  |
| COc1ccc(/C=C\c2cc(OC)c(OC)c(OC)c2)cc1OP(=O)(O)O [CA4P] |  | seven patients have experienced heart attacks |
